Read-outs that look alike come from different tables or passages of the source.
What was measured:
[1] = tested on: human PBMC; experiment: Human peripheral blood mononuclear cell assay, IL-6 (IL-6 hPBMC); type: cell-based; details: IL-6 levels
Description: The bioactivity of the described compounds are tested in the human peripheral blood assay (human PBMC) using a panel of independent normal human donors according to approved guidelines by the institutional review committee. Human PBMC are isolated from freshly peripheral blood using a Ficoll density gradient (GE healthcare 17-1440-03). 30-35 mLs of peripheral human blood are layered onto 15 mLs of Ficoll in 50 ml conical tubes, followed by centrifugation at 1800 rpm (Eppendorf Centrifuge 5810R with biohazard caps over the tube buckets) at room temperature for 30 minutes with no acceleration and no brake. The buffy layers are then collected and transferred onto new 50 ml conical tubes and washed twice in complete media consisting of RAMI 1640 (11875085 from Invitrogen Corporation, Carlsbad, Calif.) supplemented with 10% heat inactivated fetal bovine serum (Gibco 10099-141), 1% Pen-Strep (Gibco#15140-122), 1 mM non essential amino acids (Gibco#11140-050), 1 mM sodium pyruvate (Gibco#11360-070), 2 mM L-Glutamine (Gibco#25030-081) and 1 mM HEPES (Gibco#15630-080). Viable cells are then counted using trypan blue staining, plated in 96 well flat bottom plates (Becton Dickinson #353070) at 2×10^5 cells per well in 200 μl total volume of complete media. Compounds are then added in a 10 point dose response format starting at 100 μM, 3 fold dilution. Negative controls wells received equal concentration of DMSO. Culture supernatants are collected after 18-24 hours incubation at 37° C., 5% CO2, stored at −20° C. until further use.
IL-6 levels in the culture supernatants are measured using a Luminex kit (Biorad). Data analysis is performed using Prism software from GraphPad (San Diego, Calif.). Dose response curves are generated for each compound and EC50 values are determined as the concentration that gives 50% of the maximal signal.

[2] = target: T1, human TLR8 (Homo sapiens, UniProt Q9NR97); experiment: Reporter gene assay, HEK293-TLR8 (NF-kB-driven luciferase); type: cell-based; details: HEK293-TLR8; read-out: EC50 in HEK293-TLR8 assay
T1 construct: expressed in transfected cells; host or cells: HEK 293
T1 sequence (Q9NR97 27-1041): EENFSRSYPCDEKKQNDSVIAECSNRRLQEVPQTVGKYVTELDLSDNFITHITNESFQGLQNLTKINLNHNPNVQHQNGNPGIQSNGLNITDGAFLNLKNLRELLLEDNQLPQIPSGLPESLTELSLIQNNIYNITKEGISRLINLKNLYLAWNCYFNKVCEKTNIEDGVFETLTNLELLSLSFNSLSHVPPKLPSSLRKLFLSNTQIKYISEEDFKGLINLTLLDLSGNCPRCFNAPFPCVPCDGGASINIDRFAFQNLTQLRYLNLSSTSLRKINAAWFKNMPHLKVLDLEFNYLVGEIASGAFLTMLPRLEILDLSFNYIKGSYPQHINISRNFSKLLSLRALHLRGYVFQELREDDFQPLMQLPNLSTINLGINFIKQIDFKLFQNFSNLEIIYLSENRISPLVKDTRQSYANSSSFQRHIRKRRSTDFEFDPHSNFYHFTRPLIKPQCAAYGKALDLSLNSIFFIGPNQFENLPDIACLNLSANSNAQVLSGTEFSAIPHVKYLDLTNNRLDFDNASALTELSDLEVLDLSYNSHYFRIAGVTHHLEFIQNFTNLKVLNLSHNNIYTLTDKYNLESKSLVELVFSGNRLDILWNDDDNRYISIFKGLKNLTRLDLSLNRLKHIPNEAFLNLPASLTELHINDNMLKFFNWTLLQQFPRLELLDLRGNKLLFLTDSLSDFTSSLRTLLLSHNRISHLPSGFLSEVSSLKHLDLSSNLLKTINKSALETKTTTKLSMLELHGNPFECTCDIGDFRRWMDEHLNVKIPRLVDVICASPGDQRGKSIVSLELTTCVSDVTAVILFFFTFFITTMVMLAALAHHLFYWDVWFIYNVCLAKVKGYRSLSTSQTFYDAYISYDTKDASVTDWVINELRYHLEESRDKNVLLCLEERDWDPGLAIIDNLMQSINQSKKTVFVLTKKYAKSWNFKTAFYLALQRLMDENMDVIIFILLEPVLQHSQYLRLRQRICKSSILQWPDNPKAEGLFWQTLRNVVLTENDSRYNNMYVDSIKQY
Description: (§1) Human embryonic kidney 293 (HEK 293) cells are stably transfected with human TLR7 or TLR8 and an NF-kB-driven luciferase reporter vector (pNifty-Luciferase). As a control assay, normal Hek293 transfected with pNifty-Luc are used. Cells are cultured in DMEM supplemented with 2 mM L-glutamine, 10% heart inactivated FBS, 1% penicillin and streptomycin, 2 μg/ml puromycin (InvivoGen #ant-pr-5) and 5 μg/ml of blasticidin (Invitrogen #46-1120). Bright-Glo™ Luciferase assay buffer and substrate are supplied by Promega #E263B and #E264B (assay substrate and buffer respectively). 384 well clear-bottom plates are supplied by Greiner bio-one (#789163-G) and are GNF custom bar-coded plates.
(§2) Cells are plated at 25,000 cells/well in 384-well plates in a final volume of 50 μl of media. Cells are allowed to adhere to the plates after overnight (18 hours) culture at 37° C. 5% CO2. Serially diluted experimental and positive control compounds are then dispensed to each well and incubated for 7 hours at 37° C. 5% CO2. Cells stimulated with DMSO alone also serve as negative controls. After the incubation, 30 μl of the pre-mix assay buffer and substrate buffer are added to each well according to manufacturer's instructions. The luminescence signal is read on a CLIPR machine with an integration time of 20 seconds per plate.
(§3) Dose response curves are generated for each compound and EC50 values were determined as the concentration that gives 50% of the maximal signal.

[3] = target: T2, human TLR7 (Homo sapiens, UniProt Q9NYK1); experiment: Reporter gene assay, HEK293-TLR7 (NF-kB-driven luciferase); type: cell-based
T2 construct: expressed in transfected cells; host or cells: HEK 293
T2 sequence (Q9NYK1 27-1049): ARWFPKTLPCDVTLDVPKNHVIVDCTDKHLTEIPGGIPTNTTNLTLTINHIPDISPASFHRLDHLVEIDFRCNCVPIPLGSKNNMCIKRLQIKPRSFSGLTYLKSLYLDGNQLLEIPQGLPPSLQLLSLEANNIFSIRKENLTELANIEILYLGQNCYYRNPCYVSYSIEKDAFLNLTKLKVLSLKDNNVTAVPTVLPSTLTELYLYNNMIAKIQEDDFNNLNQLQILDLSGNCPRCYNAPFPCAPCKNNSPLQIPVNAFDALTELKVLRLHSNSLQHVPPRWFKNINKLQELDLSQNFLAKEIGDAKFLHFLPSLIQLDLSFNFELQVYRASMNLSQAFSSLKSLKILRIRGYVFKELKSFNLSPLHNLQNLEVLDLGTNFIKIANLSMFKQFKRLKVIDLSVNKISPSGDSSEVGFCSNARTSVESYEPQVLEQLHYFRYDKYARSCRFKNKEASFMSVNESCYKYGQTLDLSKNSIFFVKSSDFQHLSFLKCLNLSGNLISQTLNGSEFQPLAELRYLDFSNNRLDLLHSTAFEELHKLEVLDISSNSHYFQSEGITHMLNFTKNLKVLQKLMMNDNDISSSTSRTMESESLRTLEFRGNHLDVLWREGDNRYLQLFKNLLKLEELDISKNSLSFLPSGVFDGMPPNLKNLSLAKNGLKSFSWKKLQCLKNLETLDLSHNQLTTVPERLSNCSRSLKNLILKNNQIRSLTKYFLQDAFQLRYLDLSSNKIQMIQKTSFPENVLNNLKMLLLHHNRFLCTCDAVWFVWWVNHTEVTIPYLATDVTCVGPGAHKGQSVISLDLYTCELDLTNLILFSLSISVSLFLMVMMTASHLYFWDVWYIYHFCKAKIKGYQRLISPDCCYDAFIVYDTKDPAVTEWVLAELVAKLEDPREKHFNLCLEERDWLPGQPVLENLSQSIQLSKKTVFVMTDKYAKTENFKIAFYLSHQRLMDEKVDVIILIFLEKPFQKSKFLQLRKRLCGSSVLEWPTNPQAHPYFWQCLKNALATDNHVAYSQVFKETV
Description: as §1, §2, §3

[4] = tested on: N. meningitidis serogroup B strain NZ98; experiment: In vivo enhancement of immune response to 3MenB vaccine, serum bactericidal antibody (SBA) titer; details: for protective response in the mice (SBA titer of >1000 correlates with protection): 100 μg compound with 3MenB/MF59, NZ98 strain
Description: In a second experiment, the dose response of one compound, Example No. 47, was tested using the same protocol. […] The SBA titers were measured in all cases using the standard CFU method. The dose of each compound in μg is indicated on the left of FIG. 2.
FIG. 5 summarizes the data from the six total experiments. A titer of >1000 correlates with immunization providing protection against the pathogen tested in the SBA titer (i.e., the NZ/98 N. meningitidis serogroup B strain).

[5] = HEK293-TLR7, read-out: EC50 in HEK293-TLR7 assay

Row | Structure (SMILES) | EC50 [2] | EC50 [3, 5] | EC50 [1] | protective response in the mice (SBA titer of >1000 correlates with protection) [4] | difference in SBA titer, immunization with a CpG oligo versus the compound ([4]; mice, by p-value) | EC50 ([3]; TLR-7 stimulation, read-out: Human TLR-7 EC50)
1 | CCc1cnc2c(N)nc3ccccc3c2c1 [Example 30, 2-ethylbenzo[f][1,7]naphthyridin-5-amine] | 13 µM | 8.64 µM | 2.28 µM | – | – | –
2 | Nc1nc2ccccc2c2cc(CCc3ccccc3)cnc12 [Example 33, 2-phenethylbenzo[f][1,7]naphthyridin-5-amine] | – | 2.44 µM | 2.28 µM | – | – | –
3 | Cc1ccc(CCc2cnc3c(N)nc4ccccc4c3c2)c(C)c1 [Example 47, 2-(2,4-dimethylphenethyl)benzo[f][1,7]naphthyridin-5-amine] | – | – | – | protective response | did not produce a statistically significant difference | 0.361 µM
4 | COc1ccc(CCc2cnc3c(N)nc4cc(C)ccc4c3c2)c(C)c1 [Example 49, 2-(4-methoxy-2-methylphenethyl)-8-methylbenzo[f][1,7]naphthyridin-5-amine] | – | – | – | protective response | – | –
5 | Cc1ccc2c(c1)nc(N)c1ncc(CCc3ccc(N(C)C)cc3)cc12 [Example 169, 2-(4-(dimethylamino)phenethyl)-8-methylbenzo[f][1,7]naphthyridin-5-amine] | – | – | – | protective response | – | –

More lines, main results first:

Row | EC50 [2] | EC50 [3, 5] | Structure (SMILES) | EC50 [1] | protective response in the mice (SBA titer of >1000 correlates with protection) [4] | difference in SBA titer, immunization with a CpG oligo versus the compound ([4]; mice, by p-value) | EC50 ([3]; TLR-7 stimulation, read-out: Human TLR-7 EC50)
6 | 14 µM | > 100 µM | Nc1nc2ccccc2c2cccnc12 [Example 1, Benzo[f][1,7]naphthyridin-5-amine] | 0.84 µM | – | – | –
7 | 9.01 µM | 15.8 µM | Cc1ccc2c(c1)nc(N)c1ncccc12 [Example 5, 8-methylbenzo[f][1,7]naphthyridin-5-amine] | 0.396 µM | – | – | –
8 | 37 µM | – | Nc1nc2cc(F)ccc2c2cccnc12 [Example 14, 8-fluorobenzo[f][1,7]naphthyridin-5-amine] | 6.38 µM | – | – | –
